Usually Km stands for the concentration of substrate that gives half-maximal velocity.

For one compound, Km and Vmax results are on record in US20250129344A1, “MODIFIED GLUTAMATE DEHYDROGENASE AND APPLICATION THEREOF” (Hunan Lier Biotech Co., Ltd., priority 2021, published 2025).

Substitutions are numbered along the chain they refer to.

Assay in all cases: Dynamic properties (Michaelis-Menten) of LsGluDH mutant, PPO reductive amination
Common to all, as to assay type: biochemical
What all share (settings): PPO 5-100 mM, NADPH 0.15 mM, NH4Cl 50 mM, PBS pH 7.5, 30° C., diluted crude enzyme, 340 nm

The target in test [1] is T1, Lysinibacillus sphaericus glutamate dehydrogenase (LsGluDH, SEQ ID NO: 2) variant A175G-I133V-V173S-A182R, SEQ ID NO: 38 (Lysinibacillus pinottii, UniProt A0ABT2DNY0, A175G/A182R/I133V/V173S).
T1 sequence (A0ABT2DNY0 1-457 A175G/A182R/I133V/V173S): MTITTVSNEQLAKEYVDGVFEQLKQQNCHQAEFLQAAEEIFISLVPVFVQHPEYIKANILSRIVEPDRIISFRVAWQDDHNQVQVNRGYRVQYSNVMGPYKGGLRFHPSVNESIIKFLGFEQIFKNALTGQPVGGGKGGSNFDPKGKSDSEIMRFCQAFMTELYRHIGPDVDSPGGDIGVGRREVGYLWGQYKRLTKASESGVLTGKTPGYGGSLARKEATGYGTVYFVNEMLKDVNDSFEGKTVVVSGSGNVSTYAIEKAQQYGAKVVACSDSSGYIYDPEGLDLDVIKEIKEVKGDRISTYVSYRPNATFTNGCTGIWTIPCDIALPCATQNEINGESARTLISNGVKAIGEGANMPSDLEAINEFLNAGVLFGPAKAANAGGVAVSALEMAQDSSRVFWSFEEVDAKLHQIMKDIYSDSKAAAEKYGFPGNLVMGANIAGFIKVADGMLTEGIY
The procedure:
(§1) A plurality of reaction systems (200 μL) comprising PBS of 100 mM pH 7.5 (pH was adjusted with aqueous ammonia solution), NADPH (reductive) of 0.15 mM, NH4Cl of 50 mM, diluted (500 folds) crude enzyme solution of 10% volume and the substrate PPO at various concentrations (5-100 mM) were formulated on a 96-well plate. The intensity of the UV absorption at 340 nm was detected at 30° C., and the rate of change in absorption over time (mA/min) was recorded. The obtained parameters were plugged into Michaelis-Menten equation, in which the reaction velocity was calculated with the rate of change in absorption.
(§2) The mutants were prepared with the coding nucleic acid of LsGluDH (SEQ ID NO: 2) as the template, and the enzyme activities and the dynamic parameters Vmax and Km were measured, according to the method of Example 1. The resulted mutants and the enzyme activities and the dynamic parameters thereof are shown in Table 2, and the relative enzyme activity means the percentage of the enzyme activity of the mutant to the enzyme activity of the mutant of SEQ ID NO: 31.

Test [2] has as its target T2, Lysinibacillus sphaericus glutamate dehydrogenase (LsGluDH, SEQ ID NO: 2) variant A175G-I133V, SEQ ID NO: 33 (Lysinibacillus pinottii, UniProt A0ABT2DNY0, A175G/I133V).
T2 sequence (A0ABT2DNY0 1-457 A175G/I133V): T1 sequence (A0ABT2DNY0 1-457 A175G/A182R/I133V/V173S) with S173V, R182A
The procedure:
as §1, §2

Test [3] concerns the target T3, Lysinibacillus sphaericus glutamate dehydrogenase (LsGluDH, SEQ ID NO: 2) variant A175G-P132L, SEQ ID NO: 32 (Lysinibacillus pinottii, UniProt A0ABT2DNY0, A175G/P132L).
T3 sequence (A0ABT2DNY0 1-457 P132L/A175G): T1 sequence (A0ABT2DNY0 1-457 A175G/A182R/I133V/V173S) with P132L, V133I, S173V, R182A
The procedure: as §1, §2

Test [4] deals with T4, Lysinibacillus sphaericus glutamate dehydrogenase (LsGluDH, SEQ ID NO: 2) variant A175G-A182R, SEQ ID NO: 36 (Lysinibacillus pinottii, UniProt A0ABT2DNY0, A175G/A182R).
T4 sequence (A0ABT2DNY0 1-457 A175G/A182R): T1 sequence (A0ABT2DNY0 1-457 A175G/A182R/I133V/V173S) with V133I, S173V
The procedure: as §1, §2

Take `CP(=O)(O)CCC(=O)C(=O)O` [PPO, 2-carbonyl-4-(hydroxymethylphosphono) butyric acid]: the Km was found to be 26 mM in test [1], 35 mM in test [2], 35 mM in test [3] and 38 mM in test [4]. Besides, the Vmax is 38 mA/min in test [1], 39 mA/min in test [2], 45 mA/min in test [3] and 46 mA/min in test [4].
